Earlier results as cited in patent publication US10332616B2, “Movable type method applied to protein-ligand binding” (University of Florida Research Foundation, Inc., priority 2013, dated 2019).
Like-named read-outs stand apart in the source and are kept apart here.

[1] = experimental solvation free energy, test set with 372 neutral compounds
[2] = experimental solvation free energy, neutral compounds test set
[3] = aqueous solvation free energy, charged compounds (ions)

Exp. ΔGsolv [2] | Compound | Exp. ΔGsolv [1] | other results
 | Cl[C@H]1[C@H](Cl)[C@@H](Cl)[C@@H](Cl)[C@H](Cl)[C@H]1Cl [test1035] | -5.4 kcal/mol | 
-6.55 kcal/mol | COCCN [Compound 0147met] |  | 
 | CC(=O)C(=O)O [i063, pyruvicacid, reference compound] |  | Exp. ΔGsolv [3]: -68.50 kcal/mol
 | Cc1ccccc1Cl [Compound 0413clt] | -1.15 kcal/mol | 
 | CCC [Compound 0003pro] | 1.96 kcal/mol | 
 | Cl/C=C\Cl [Compound 0171Zdi] | -1.17 kcal/mol | 
 | CC(C)CC(C)C [Compound 0013dim] | 2.88 kcal/mol | 
-2.29 kcal/mol | CCCCCCCC=O [Compound 0237oct] |  | 
 | C=CC [Compound 0022pro] | 1.27 kcal/mol | 
 | Clc1ccccc1Cl [Compound 0175odi] | -1.36 kcal/mol | 
 | CCC#N [Compound 0127pro] | -3.85 kcal/mol | 
-2.65 kcal/mol | CCOC=O [Compound 0092ethb] |  | 
 | CC(C)=O [Compound 0075pro] | -3.85 kcal/mol | 
 | CCCC(C)C [Compound 0012met] | 2.52 kcal/mol | 
 | CCOP(=S)(OCC)Oc1nc(Cl)c(Cl)cc1Cl [test1022] | -5 kcal/mol | 
 | ClC(Cl)Cl [Compound 0162tri] | -1.07 kcal/mol | 
-6.47 kcal/mol | CCC(=O)O [Compound 0087pro] |  | 
 | NC(=S)c1c(Cl)cccc1Cl [Compound 0427dcl] | -10.81 kcal/mol | 
-7.77 kcal/mol | CN1CCNCC1 [Compound 0112Nme] |  | 
-6.16 kcal/mol | CCCCC(=O)O [Compound 0089pen] |  | 
 | c1ccc2cc3ccccc3cc2c1 [Compound 0042ant] | -4.23 kcal/mol | 
-1.27 kcal/mol | CCCSCCC [Compound 0143dip] |  | 
 | CCCCBr [Compound 0184bro] | -0.41 kcal/mol | 

Exp. ΔGsolv [2] | Compound | Exp. ΔGsolv [1] | other results
 | O=C1NC(=O)c2ccccc21 [test2025] | -9.61 kcal/mol | 
-9.51 kcal/mol | COC(=O)c1ccc(O)cc1 [test2020] |  | 
 | CCC(=O)CC [Compound 0079pen] | -3.41 kcal/mol | 
 | CCCC(C)Cl (centres unmarked) [Compound 0411chp] | 0.07 kcal/mol | 
 | FCCl [Compound 0198chl] | -0.77 kcal/mol | 
 | FC(F)(F)CCl [Compound 0205chl] | 0.06 kcal/mol | 
-9.4 kcal/mol | O=C(O)c1cc(-c2ccc(F)cc2F)ccc1O [test2010] |  | 
-10 kcal/mol | CNC(C)=O [Compound 0235ZNmb] |  | 
-3.1 kcal/mol | CCOC(C)=O [Compound 0095eth] |  | 
-13.93 kcal/mol | CC(=O)Nc1cccc(O)c1 [test3002] |  | 
 | Cc1ccc(N)cc1 [i021, 4-methylaniline, reference compound] |  | Exp. ΔGsolv [3]: -69.80 kcal/mol
-6.71 kcal/mol | Cc1c(Cl)cccc1Nc1ccccc1C(=O)O [test3019] |  | 
-4.1 kcal/mol | CCCCCN [Compound 0113pen] |  | 
 | N [i047, ammonia, reference compound] |  | Exp. ΔGsolv [3]: -85.20 kcal/mol
-6.7 kcal/mol | CC(=O)O [Compound 0086eth] |  | 
 | CC(C)CO[N+](=O)[O-] [test1005] | -1.9 kcal/mol | 
-1.63 kcal/mol | CCSSCC [Compound 0223die] |  | 
 | Cl/C=C/Cl [Compound 0172Edi] | -0.76 kcal/mol | 
 | O=C(O)CCl [i119, chloroaceticacid, reference compound] |  | Exp. ΔGsolv [3]: -69.70 kcal/mol
-3.66 kcal/mol | CCCNCCC [Compound 0115dip] |  | 
 | FC(F)(F)C(Cl)Br (centres unmarked) [Compound 0201bro] | -0.13 kcal/mol | 
 | C1CC1 [Compound 0016cyc] | 0.75 kcal/mol | 
 | Clc1ccccc1-c1ccccc1Cl [Compound 0414dcl] | -2.73 kcal/mol | 

Exp. ΔGsolv [2] | Compound | Exp. ΔGsolv [1] | other results
 | Cc1cccc(C)n1 [Compound 0125dim] | -4.6 kcal/mol | 
 | CBr [Compound 0177bro] | -0.82 kcal/mol | 
-5.49 kcal/mol | OC1CCCC1 [Compound 0051cyc] |  | 
-7.58 kcal/mol | CN1CCN(C)CC1 [Compound 0114NNd] |  | 
-10.48 kcal/mol | O=Cc1ccc(O)cc1 [Compound 0151phy] |  | 
-8.72 kcal/mol | CCCCOC(=O)c1ccc(O)cc1 [test2003] |  | 
 | CC(C)(C)C [Compound 0011dim] | 2.5 kcal/mol | 
 | CC#N [Compound 0126eth] | -3.89 kcal/mol | 
 | FC(F)(F)C(F)(F)F [Compound 0405hex] | 3.94 kcal/mol | 
 | CCBr [Compound 0180bro] | -0.7 kcal/mol | 
 | CCCCCC(=O)O [i061, hexanoicacid, reference compound] |  | Exp. ΔGsolv [3]: -74.60 kcal/mol
 | CC(C)Cl [Compound 0168chl] | -0.25 kcal/mol | 
 | ClCCl [Compound 0161dic] | -1.36 kcal/mol | 
-1.3 kcal/mol | CCS [Compound 0137ethb] |  | 
 | CC(Cl)(Cl)Cl [Compound 0165tri] | -0.25 kcal/mol | 
-10.91 kcal/mol | CCOc1ccc(NC(C)=O)cc1 [test3005] |  | 
-2.21 kcal/mol | COC(C)(C)C [Compound 0067but] |  | 
-3.18 kcal/mol | CCCC=O [Compound 0072but] |  | 
 | COO [methylperoxide, reference compound] |  | ΔGsol experimental value (neutral molecule): -5.28 kcal/mol
 | Brc1ccccc1 [Compound 0186bro] | -1.46 kcal/mol | 
 | FC(F)(F)c1cccc(C(F)(F)F)c1 [test0004] | 1.07 kcal/mol | 
-7 kcal/mol | CC(C)Cc1ccc(C(C)C(=O)O)cc1 (centres unmarked) [test2017] |  | 
-1.92 kcal/mol | COC [Compound 0060dim] |  | 

Exp. ΔGsolv [2] | Compound | Exp. ΔGsolv [1] | other results
 | CCCCO[N+](=O)[O-] [test1003] | -2.1 kcal/mol | 
 | ClC(Cl)=C(Cl)Cl [Compound 0204tet] | 0.05 kcal/mol | 
-2.22 kcal/mol | CCOc1ccccc1 [Compound 0246eth] |  | 
 | C=CCBr [Compound 0417brp] | -0.86 kcal/mol | 
-4.16 kcal/mol | CC(O)C(F)(F)F (centres unmarked) [Compound 0211tri] |  | 
 | C=CCC [Compound 0025buta] | 1.38 kcal/mol | 
 | CC[N+](=O)[O-] [Compound 0130nit] | -3.71 kcal/mol | 
 | C=CCCC [Compound 0027pen] | 1.66 kcal/mol | 
 | C1CCCCC1 [Compound 0018cyc] | 1.23 kcal/mol | 
-4.83 kcal/mol | CCCO [Compound 0047pro] |  | 
-4.36 kcal/mol | CCCCCCO [Compound 0054hex] |  | 
 | BrC(Br)Br [Compound 0179tri] | -1.98 kcal/mol | 
-4.47 kcal/mol | CCCCCO [Compound 0052pen] |  | 
 | FC(Br)C(F)(F)F (centres unmarked) [Compound 0203bro] | 0.52 kcal/mol | 
-5.01 kcal/mol | CCO [Compound 0045eth] |  | 
 | CN [i003, methylamine, reference compound] |  | Exp. ΔGsolv [3]: -76.40 kcal/mol
-3.32 kcal/mol | COC(C)=O [Compound 0093met] |  | 
 | C1CCCC1 [Compound 0017cyc] | 1.2 kcal/mol | 
 | CCCC[N+](=O)[O-] [Compound 0133nit] | -3.08 kcal/mol | 
 | CC(F)F [Compound 0154dif] | -0.11 kcal/mol | 
-0.53 kcal/mol | CC(C)OC(C)C [Compound 0242dii] |  | 
 | c1ccncc1 [Compound 0116pyr] | -4.7 kcal/mol | 

Compound | Exp. ΔGsolv [2] | Exp. ΔGsolv [1] | other results
CN(C)c1ccccc1 [n014] | -3.58 kcal/mol |  | 
CCOCC [Compound 0063die] | -1.76 kcal/mol |  | 
CCOP(=S)(OCC)Oc1ccc([N+](=O)[O-])cc1 [test1043] | -6.7 kcal/mol |  | 
CCOP(=O)(OCC)O/C(=C\Cl)c1ccc(Cl)cc1Cl [test1019] | -7.1 kcal/mol |  | 
COC(=O)c1ccccc1S(=O)(=O)NC(=O)Nc1nc(C)nc(OC)n1 [test1039] | -15.5 kcal/mol |  | 
CCC(C)n1c(=O)[nH]c(C)c(Br)c1=O (centres unmarked) [test1013] | -9.7 kcal/mol |  | 
COc1ccc(C(=O)O)cc1 [test3014] | -9.15 kcal/mol |  | 
COP(=O)(OC)C(O)C(Cl)(Cl)Cl (centres unmarked) [test1055] | -12.7 kcal/mol |  | 
N#Cc1cc(Br)c(O)c(Br)c1 [Compound 0425dbr] | -9 kcal/mol |  | 
CCCS [Compound 0138pro] | -1.05 kcal/mol |  | 
ClCCOCCCl [test0007] | -4.23 kcal/mol |  | 
FC1(F)C(F)(F)C(F)(F)C1(F)F [test2023] | 3.43 kcal/mol |  | 
O=C1C2CC=CCC2C(=O)N1SC(Cl)(Cl)Cl (centres unmarked) [test1014] | -9 kcal/mol |  | 
O=Cc1ccccc1 [Compound 0074ben] | -4.02 kcal/mol |  | 
CCOC(=O)c1ccccc1S(=O)(=O)NC(=O)Nc1nc(Cl)cc(OC)n1 [test1020] | -14 kcal/mol |  | 
CCN [Compound 0103eth] | -4.5 kcal/mol |  | 
FC(F)OC(Cl)C(F)(F)F (centres unmarked) [Compound 0209chl] | 0.11 kcal/mol |  | 
COc1cccc(C(=O)O)c1 [test3015] | -8.93 kcal/mol |  | 
Cc1ccc(N)cc1 [n011] | -5.55 kcal/mol |  | 
COP(=S)(OC)SCn1nnc2ccccc2c1=O [test1010] | -10 kcal/mol |  | 
N#Cc1c(Cl)cccc1Cl [Compound 0426dcl] | -5.22 kcal/mol |  | 
OC(C(F)(F)F)C(F)(F)F [Compound 0212hex] | -3.77 kcal/mol |  | 
O=c1[nH]c(=O)[nH]c(=O)[nH]1 [test2007] | -18.06 kcal/mol |  | 
Cc1ccccc1N [n009] | -5.56 kcal/mol |  | 
CCCCN(CC)C(=O)SCCC [test1044] | -3.6 kcal/mol |  | 
COC(=O)c1ccccc1 [Compound 0240met] | -3.91 kcal/mol |  | 
O=[N+]([O-])c1c(Cl)c(Cl)c(Cl)c(Cl)c1Cl [test2024] | -5.22 kcal/mol |  | 
C=CCO [Compound 0145pro] | -5.08 kcal/mol |  | 
